We go through eight compounds from PubChem BioAssay (NCI).

SMILES strings stand for the structures.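 The compound was tested at five concentrations on cells cultured in 96-well plates, with a 48-hour exposure period. GI50: concentration for 50% inhibition of growth. TGI is the concentration that stops growth completely.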 Some results are limits rather than exact numbers.

Assay in all cases: DTP human tumour cell line panel, 48 h
Experiment [1] deals with IGROV1 ovarian.
The test system of experiment [2] is MDA-MB-435.
The subject of experiment [3] is M14 melanoma.
Experiment [4] has as its system SNB-75 CNS.
In experiment [5] the test system is HCC-2998 colon.
The subject of experiment [6] is A549 NSCLC.
The test system of experiment [7] is DU-145 prostate.
For experiment [8], the system named is K-562 leukemia.
Experiment [9] deals with HOP-92 NSCLC.
For experiment [10], the system named is HL-60(TB) leukemia.

As a reminder, the GI50 is the concentration at which growth is held to half of that of the control. By TGI is commonly meant the concentration giving total growth inhibition. `COC(=O)/C=C/c1cc(OC(C)=O)c2c(c1)[C@@H](C(=O)OC)[C@H](c1ccc(OC(C)=O)c(OC(C)=O)c1)O2`: the GI50 is 0.176 µM in [1]; 0.0166 µM in [2]; 0.0338 µM in experiment [3]; 0.0191 µM in [4]; 0.514 µM in experiment [5]; 0.248 µM in experiment [6]. Besides, the GI50 in experiment [7] is 0.0636 µM; in [8] it was 0.0378 µM; in experiment [9], 0.769 µM; in experiment [10] it was 0.0288 µM. For the same compound, the total growth inhibition concentration (TGI) in [1] was 38.3 µM; in [2], 0.0466 µM; in [3] it was 39 µM; in experiment [4], 1.48 µM; in [5], 22 µM; in experiment [6], above 78.8 µM. In addition, the values for the TGI in [8], in [9] and in experiment [10] were above 49.2 µM, 22.4 µM and 0.0934 µM, respectively.
For `NC(N)=NS(=O)(=O)c1ccc(N=Nc2c(O)c(C(=O)O)cc3ccccc23)cc1`, the total growth inhibition concentration (TGI) in experiment [1], in experiment [2], in experiment [3], in [4], in [5] and in experiment [6] was above 100 µM in each case. The TGI in experiment [7], in [8], in experiment [9] and in experiment [10] was above 100 µM in each case.
Turning to `C/C=C/[C@@H]1O[C@@H]2COC(=O)C2=C[C@@H]1O`, the GI50 was 18.6 µM in [1]; 18.8 µM in experiment [2]; 13.7 µM in [3]; 28.5 µM in experiment [4]; 24.1 µM in [5]; 20.6 µM in experiment [6]. Also, the GI50 in experiment [7] is 5.03 µM; in experiment [8], 2.53 µM; in experiment [9] it was 0.747 µM; in [10], 10.6 µM. Further, the concentration for total growth inhibition (TGI) was above 84 µM in experiment [1]; 37.3 µM in experiment [2]; 35.3 µM in [3]; 54 µM in experiment [4]; 48.8 µM in experiment [5]; 40.4 µM in experiment [6]. Moreover, the concentration for total growth inhibition (TGI) in experiment [7] is 18.8 µM; in experiment [9], 9.35 µM; in experiment [10] it was above 100 µM.
Take `O=C1c2c(F)c(F)c(F)c(F)c2C(=O)N1c1ccc(F)cc1F`: the GI50 is 6.54 µM in experiment [1]; 13.9 µM in experiment [2]; 13.4 µM in experiment [3]; 12.7 µM in experiment [4]; 11.2 µM in [5]; 16.3 µM in experiment [6]. The GI50 in experiment [7] is 8 µM; in experiment [8], 2.58 µM; in experiment [9] it was 13.8 µM; in [10], 0.403 µM. Moreover, the concentration for total growth inhibition (TGI) in [1] came to 19.3 µM; in [2], 38.3 µM; in [3] it was 33.6 µM; in experiment [4], 34.6 µM; in experiment [5] it was 23.2 µM; in experiment [6], 34.7 µM. Also, the concentration for total growth inhibition (TGI) is 23.4 µM in experiment [7], above 33.9 µM in experiment [8], 31.9 µM in experiment [9] and 0.891 µM in experiment [10].
On to `O=C1NC(=NCc2ccccc2)S/C1=C\c1ccc2ncccc2c1`, for which the GI50 in [1] was above 25 µM; in experiment [2], above 25 µM; in experiment [3] it was above 25 µM; in experiment [4], above 25 µM; in experiment [5] it was above 25 µM; in experiment [6], 24.6 µM. Also, the GI50 in [7], in experiment [8], in experiment [9] and in experiment [10] was above 25 µM each time. The TGI in [1], in experiment [2], in experiment [3], in experiment [4], in experiment [5] and in [6] was above 25 µM throughout. Also, the total growth inhibition concentration (TGI) in [7], in [8], in experiment [9] and in experiment [10] was above 25 µM each time.
For the compound `NCCNCCNCCN`, the GI50 in [1], in experiment [2], in experiment [3], in [4], in [5] and in experiment [6] was above 100 µM throughout. For the same compound, the GI50 in experiment [7], in experiment [8], in experiment [9] and in experiment [10] was above 100 µM in each case. In addition, the concentration for total growth inhibition (TGI) in experiment [1], in experiment [2], in experiment [3], in [4], in experiment [5] and in experiment [6] was above 100 µM in each case. Moreover, the concentration for total growth inhibition (TGI) in experiment [7], in [8], in [9] and in experiment [10] was above 100 µM each time.
As to `C=C1C[C@H](O)[C@H](Br)C(C)(C)[C@@]12CCC(C)=C(Cl)C2`, the 50% growth inhibitory concentration (GI50) in experiment [1] was 0.25 µM; in experiment [2], 0.327 µM; in experiment [3], 0.314 µM; in experiment [4], 0.16 µM; in [5], 0.568 µM; in experiment [6], 0.261 µM. Further, the 50% growth inhibitory concentration (GI50) in experiment [7] was 0.276 µM; in experiment [8], 0.443 µM; in [9] it was 0.208 µM; in experiment [10] it was 0.206 µM. Moreover, the TGI is 11.7 µM in experiment [1]; 1.72 µM in experiment [2]; 1.66 µM in experiment [3]; 0.785 µM in experiment [4]; 14 µM in experiment [5]; 1.96 µM in experiment [6]. In addition, the concentration for total growth inhibition (TGI) in [7] turned out to be 3.25 µM; in experiment [8], 10.4 µM; in experiment [9], 0.802 µM; in experiment [10] it was 0.761 µM.
`COc1ccc(Cn2c(Br)c3c(c2Br)-c2nc(N)sc2CC3)cc1`: the GI50 in experiment [1] is 11.6 µM; in experiment [2], 0.407 µM; in experiment [3] it was 3.96 µM; in experiment [4], 1.92 µM; in experiment [5], 13.3 µM; in [6], 4.77 µM. Also, the GI50 was 6.13 µM in [7], 2.43 µM in experiment [8], 2.24 µM in experiment [9] and 2.75 µM in experiment [10]. Besides, the TGI in [1] was found to be 39.2 µM; in experiment [2], 10.4 µM; in experiment [3], 17.6 µM; in experiment [4], 8.64 µM; in experiment [5], 28.2 µM; in experiment [6], 77 µM. Also, the TGI in experiment [7] is 39.6 µM; in experiment [8], 57.9 µM; in experiment [9], 14 µM; in [10], 22.6 µM.
